According to patent publication US4943595A, “Perfluorochemicals and process for preparing the same” (The Green Cross Corporation, priority 1984, dated 1990):
Like-named read-outs stand apart in the source and are kept apart here.

Columns and labels:
[1] = Stability of emulsion stored at 4° C. (change of particle size); assay type: physicochemical; parameters: key: Excellent: Particle size is hardly increased one month after the storage.; Good: The increase of the particle size is at most 50% or liquid-particle separation is observed one month after the storage; conditions: one month at 4° C., emulsion sterilized 100° C. 30 min
Description: (§1) According to the above preparation method of the emulsion, the emulsions of various perfluoroalkyl ether derivatives are prepared. Nine parts by volume of the resulting emulsion were diluted with 1 part by volume of an electrolyte solution of the following composition:
(§2) The emulsions were sterized by heating at 100° C. for 30 minutes in a nitrogen atmosphere. The emulsions were used for the following test.
The emulsions were stored at 4° C. and the stability was measured in terms of the change of the particle size by the following measures.
Good: The increase of the particle size is at most 50% or liquid-particle separation is observed one month after the storage.

[2] = Vapor pressure of the perfluorochemical; conditions: 38° C.
[3] = Elimination property: half reduction term in the body of the rat; assay type: in vivo
Description: as §1, §2
This property was measured by the half reduction term in the body of the rat, and evaluated as follows: […]

wister male rats = assay: Acute toxicity after intravenous injection of emulsion, observed by dissection (pulmonary emphysema); assay type: in vivo; conditions: i.v., rat, one week after injection
Description: as §1, §2
The emulsions which had been made physiologically isotonic were injected intravenously to the wister male rats of 100 to 200 g. One week after the injection acute toxicity was observed by dissection, and evaluation was effected according to the following measures.
Toxic: Occurrence of pulmonary emphysema. LD50 : 2-4 g/kg
Non toxicic: No occurence of pulmonary emphysema. LD50 : above 20 g/kg

[4] = comparison between perfluorochemicals; cited from earlier work
[5] = 37° C.; cited from earlier work

With `FC(F)(F)C(F)(F)OC(C(F)(F)F)(C(F)(C(F)(F)F)C(F)(F)F)C(F)(C(F)(F)F)C(F)(F)F` the “Stability of Emulsion” value [1] was “excellent”.

With `FC(F)(F)C(F)(F)C(F)(F)OC(F)(F)C(F)(F)C(F)(F)C(F)(F)C(F)(F)C(F)(F)C(F)(F)F` [Example 18, Perfluoro-1-n-propoxyheptane] the “Stability of Emulsion” value [1] was “good”, the Vapor pressure [2] was 15-16 mmHg and the Elimination property [3] was “poort”.

With `FC(F)(F)C(F)(F)C(F)(F)C(F)(F)OC(C(F)(F)F)(C(F)(F)F)C(F)(F)C(F)(F)C(F)(F)F` [drawing 61] the “Stability of Emulsion” value [1] was “Excellent” and the Toxicity (wister male rats) was “Non tox- ic”.

For `FC(F)(F)C(F)(F)C(F)(F)OC(F)(C(F)(C(F)(F)F)C(F)(F)F)C(F)(C(F)(F)F)C(F)(F)F` [drawing 62], the “Stability of Emulsion” value [1] was “excellent” and the Elimination property [3] was “fair”.

For `FC(F)(F)OC(F)(C(F)(F)F)C(F)(F)C(C(F)(F)F)(C(F)(F)C(F)(F)F)C(F)(F)C(F)(F)F` (stereo not drawn) [drawing 63], the “Stability of Emulsion” value [1] was “good”.

In the case of `FC1(F)C(F)(F)C(F)(F)[C@]2(F)C(F)(F)C(F)(F)C(F)(F)C(F)(F)[C@]2(F)C1(F)F` [perfluoro-cis-decalin], the “elimination rate (in words)” value [4] is given as “slightly higher elimination rate than the trans isomer” and the Vapor pressure [5] is given as 10.1 mmHg.

For `FC1(F)C(F)(F)C(F)(F)[C@]2(F)C(F)(F)C(F)(F)C(F)(F)C(F)(F)[C@@]2(F)C1(F)F` [trans isomer], the Vapor pressure [5] is given as 11.6 mmHg.
